The source of these data is patent publication US20140066385A1, “METHOD FOR TREATING CANCER BY COMBINED USE OF DRUGS” (Astellas Pharma Inc., priority 2011, published 2014).

Assay [1] relates to tumor tissues in human lung cancer cell line Calu-6 tumor-bearing mice. The assay can be described thus: Example 8: immunochemical staining of iNOS, macrophage (F4/80) and nitrotyrosine in Calu-6 tumor tissue. The assay is classed as in vivo, nude mice. An excerpt: The dose of FK330 is expressed in terms of the weight of a simple substance (non-hydrate). A paclitaxel injectable preparation (paclitaxel injection liquid “Sawai”) was purchased from Sawai Pharmaceutical Co., Ltd., and was used as paclitaxel. Rat anti-mouse F4/80 antigen monoclonal antibody, rabbit anti-iNOS polyclonal antibody, and rabbit anti-nitrotyrosine antibody were respectively purchased from AbD Serotec (Oxford, UK), Santa Cruz Biotechnology, Inc. (Santa Cruz, Calif., US), and Millipore Corp. (Billerica, Mass., USA) and used.
FK330 was suspended (20 mg/mL) in a 0.5% aqueous methyl cellulose solution (0.5% MC) and orally administered. Paclitaxel was prepared with physiological saline for injection (Otsuka Pharmaceutical Group) to a concentration of 1 mg/mL at the time of use.
Human lung cancer-derived Calu-6 (HTB-56) was obtained from American Type
Culture Collection (VA, USA). The cells were cultured under the conditions of 37° C. and 5% CO2 by using RPMI1640 medium containing 10% heat-inactivated fetal bovine serum (FBS). The cells were harvested with trypsin and were suspended in PBS at 6×10^7 cells/mL, and the suspension was mixed with an equal amount of Matrigel (trade name) Basement Membrane Matrix (manufactured by Becton Dickinson Co., Bedford, Mass., USA).
(§1) Five-week old male nude mice (CAnN Cg-Foxn1nu/CrlCrlj(nu/nu)) were purchased from Charles River Laboratories Japan, Inc. (Japan, Kanagawa). The animals were raised under specific pathogen-free (SPF) conditions throughout the test period by feeding standard feedstuff and drinking water. The cultured cells were subcutaneously inoculated into the dorsal region of the nude mice at a concentration of 3×10^6 cells/0.1 mL/mouse. Nude mice which had the tumor volumes (major axis×[minor axis]^2×0.5) ranging from 136.8 mm^3 to 248.5 mm^3 were assigned by using SAS to minimize the fluctuation in the tumor volume between the groups and within the group.
Drug administration was initiated from the first day of administration (Day 0). The respective groups (n=5) were treated as follows. FK330 was orally gavaged in an amount of 5 mL/kg from Day 0 to Day 6, and paclitaxel was intravenously administered through the tail vein in an amount of 10 mL/kg from Day 0 to Day 5.
FK330 single administration group: FK330 100 mg/kg bid (200 mg/kg/day, from Day 0 to Day 6)
Paclitaxel single administration group: Paclitaxel 10 mg/kg/day (from Day 0 to Day 5)
Combined use group: FK330 100 mg/kg bid (200 mg/kg/day, from Day 0 to Day 6)+paclitaxel 10 mg/kg/day (from Day 0 to Day 5)
FK330 was orally gavaged (5 mL/kg) twice a day at an interval of 6 to 8 hours. Paclitaxel was administered by intravenous bolus injection (10 mL/kg) through the tail vein 1 to 4 hours after the administration of FK330.
On Day 6, the tumor tissues were harvested from the mice. Immersion fixation was carried out at 4° C. for 12 hours with a 4% para-formaldehyde-phosphate buffer solution (Wako Pure Chemical Industries, Ltd.). After the tissue fixation, according to the conventional method, sucrose replacement was carried out using 10%, 15% and 20% sucrose/phosphate buffer solutions in a stepwise manner at 4° C. After completion of the replacement, the cancer tissues were embedded in O.C.T. Compound (Toronto Research Chemicals, Inc., Toronto, Canada), and frozen blocks were prepared with dry ice/acetone and stored at −80° C.
Frozen sections at 5 μm thickness were prepared by a cryostat (Sakura Finetech Japan Co., Ltd.) and were air-dried. The dried frozen sections were washed with a 4% para-formaldehyde-phosphate buffer solution, and then in order to inactivate the endogenous peroxidase activity, the sections were treated for 30 minutes with 0.3% hydrogen peroxide/methanol. Mouse macrophage, iNOS and nitrotyrosine staining was carried out by the following procedure. In regard to the iNOS and nitrotyrosine staining, antigen retrieval was carried out by microwave irradiation (3 minutes/500 W) before the immunochemical staining. […]

Assay [2] has as its system human non-small cell lung cancer (Calu-6). The assay can be described thus: Example 4: administration timing of FK330 with paclitaxel in Calu-6 tumor-bearing mice. The assay is classed as in vivo, nude mice. Conditions: Day 55; for tumor volume at the end of the study: mean±SEM. As for the experimental part:
Preparation of the test substances and conditioning of the cells were carried out in the same manner as in Example 2.
as §1, with “axis]^2×0.52)” for “axis]^2×0.5)”, “142.1” for “136.8”, “359.1” for “248.5”
The first day of administration was designated as Day 0, and observation was made until Day 55. The respective groups (n=5 or 6) were treated as follows. FK330 was orally gavaged in an amount of 5 mL/kg, and paclitaxel was administered intravenously through the tail vein in an amount of 10 mL/kg. Paclitaxel was continuously administered from Day 0 to Day 5, was subsequently withdrawn for 22 days, and then was continuously administered for 5 days from Day 28 to Day 32.
Paclitaxel single administration group: Paclitaxel 10 mg/kg/day (from Day 0 to Day 5, and from Day 28 to Day 32)
Concomitant administration, FK330 100 mg/kg bid (200 mg/kg/day)+paclitaxel 10 mg/kg/day (from Day 0 to Day 5, and from Day 28 to Day 32)
Sequential administration, FK330 100 mg/kg bid (200 mg/kg/day)+paclitaxel 10 mg/kg/day (from Day 0 to Day 5, and from Day 28 to Day 32)
Continuous administration, FK330 100 mg/kg bid (200 mg/kg/day)+paclitaxel 10 mg/kg/day (from Day 0 to Day 5, and from Day 28 to Day 32)
FK330 was orally gavaged (5 mL/kg) twice a day at an interval of 6 to 8 hours. In the Concomitant administration, FK330 was administered on the days of administration of paclitaxel (from Day 0 to Day 5, and from Day 28 to Day 32); and in the […] administration, FK330 was administered on the withdrawal days after the days of administration of paclitaxel (from Day 6 to Day 27, and from Day 33 to Day 55), while the continuous administration was carried out for all days from the day of experiment initiation to the day of experiment completion. Paclitaxel was administered by intravenous bolus injection (10 mL/kg) through the tail vein 2 to 4 hours after the administration of FK330.
Every 3 to 4 days, the body weight and the tumor diameters, determined by using a digital caliper, were measured. The tumor volume was calculated from the calculation formula for ellipsoid volume of (major axis×[minor axis]^2×0.52).

[3] abbreviates: combined use: FK330 100 mg/kg bid p.o. Day 0 to Day 6 + paclitaxel 10 mg/kg/day, Day 6.
[4] abbreviates: paclitaxel 10 mg/kg/day i.v. Day 0 to Day 5 alone, tumor harvested Day 6.

Take `O=C(/C=C/c1ccc(Cl)cc1)N[C@@H](Cc1ccccn1)C(=O)NCC(=O)N1CCC(Oc2cc(C(F)(F)F)ncn2)CC1` [FK330, N^2-[(2E)-3-(4-chlorophenyl)-2-propenoyl]-N-[2-oxo-2-(4-{[6-(trifluoromethyl)pyrimidin-4-yl]oxy}piperidin-1-yl)ethyl]-3-pyridin-2-yl-L-alaninamide]: the “iNOS protein expression in the tumor” value in assay [1] (setting [3]) is “did not affect”. In assay [1] (setting [3]), the “macrophage infiltration in the tumor” value is given as “did not affect”. Also, the “nitrotyrosine production in the tumor” value in assay [1] (setting [3]) is recorded as “suppressed”. The “tumor volume reduction ratio compared with the paclitaxel-only group” value in assay [2] (concomitant administration of FK330 100 mg/kg bid + paclitaxel) worked out at 54.5%; in assay [2] (continuous administration of FK330 100 mg/kg bid + paclitaxel), 86.3%; in assay [2] (sequential administration of FK330 100 mg/kg bid + paclitaxel), 6.4%. In addition, the “tumor volume at the end of the study” value in assay [2] (concomitant administration of paclitaxel and FK330 100 mg/kg bid (FK330 on paclitaxel days only)) turned out to be 559.8±161.8 mm^3; in assay [2] (continuous administration of FK330 100 mg/kg bid (all days) + paclitaxel), 168.5±66.0 mm^3; in assay [2] (sequential administration of FK330 100 mg/kg bid (on paclitaxel withdrawal days) + paclitaxel) it was 1150.9±264.9 mm^3.
Take `CC(=O)O[C@H]1C(=O)[C@@]2(C)[C@H]([C@H](OC(=O)c3ccccc3)[C@]3(O)C[C@H](OC(=O)[C@H](O)[C@@H](NC(=O)c4ccccc4)c4ccccc4)C(C)=C1C3(C)C)[C@]1(OC(C)=O)CO[C@@H]1C[C@@H]2O` [paclitaxel, reference compound]: in assay [1] (setting [4]), the “amount of nitrotyrosine (major end-product of NO) in the tumor tissue” value was “increased”, the “iNOS protein expression in the tumor tissue” value is given as “very clearly accentuated” and the “infiltration of macrophages (F4/80) in the tumor tissue” value is given as “clearly recognized”. Moreover, the “tumor volume at the end of the study” value in assay [2] (paclitaxel-only group, 10 mg/kg/day i.v. Day 0-5 and Day 28-32) is reported as 1229.2±289.6 mm^3.
